Assay results: patent publication US20080200403A1, “9A-Carbamoyl and Thiocarbamoyl Azalides with Anti-Inflammatory Activity” (GLAXOSMITHKLINE, priority 2005, published 2008)

What was measured:
Assay type in all cases: cell-based
Details in all cases: PBL
IL-6 = assay: Inhibition of IL-6 production by stimulated human peripheral blood leukocytes in vitro
Procedure: (§1) Test substances used in in vitro experiments were dissolved in dimethyl sulfoxide (DMSO) (Kemika, Croatia) at concentrations of 50 mM and 10 mM, and were further diluted to final concentrations of 50 μM and 10 μM in 1 mL Dulbecco's modified Eagle medium (DMEM) supplemented with 1% heat inactivated fetal bovine serum (FBS), 1% L-glutamine, 50 U/ml penicillin, 50 μg/ml streptomycin and 2.5 μg/mL Fungizone (amphotericin B). Media and all media supplements were purchased from Gibco, Australia, except the FBS was purchased from Sigma, USA.
(§2) Peripheral blood leukocytes (PBL) were obtained from venous blood of healthy volunteers by sedimentation on 2% dextran T-500 (Amersham Biosciences, USA) and subsequent centrifugations of leukocyte rich plasma.
(§3) Peripheral blood leukocytes (PBL), isolated as described above, were seeded in a 48-well plate at a concentration of 3 to 5×10^6 cell per well in culture medium consisting of RPMI 1640 medium (Institute of Immunology, Croatia) supplemented with 10% heat-inactivated fetal calf serum (FCS, Biowhittaker, USA), 100 U/ml penicillin (Gibco, Australia), 100 μg/ml streptomycin (Gibco, Australia) and 2 mM L-glutamine (Gibco, Australia), and preincubated with the test compounds for 2 h at 37° C., in an atmosphere of 5% CO2, and 90% humidity. Then, stimuli (Sigma, USA) were added to a final concentration of 2 μg/mL lipopolysaccharide (LPS), 1 μg/mL phorbol 12-myristate 13-acetate (PMA) or 120 μg/mL zymosan. Samples were incubated overnight under conditions described above. At the end of incubation, the supernatants were transferred to eppendorf tubes and centrifuged for 10 min at 1500×g. Concentrations of human TNF-α, IL-1β, IL-6 and IL-8 were determined in cell supernatants by sandwich ELISA, using capture and detection antibodies (R&D Systems, Minneapolis, Minn.) according to the manufacturer's recommendations.
(§4) Inhibition (as percentage) was calculated using the following formula: % inhibition=(1−concentration of cytokines in sample/concentration of cytokines in positive control)×100. The positive control refers to stimulated samples, not treated with substances.

TNF-α = assay: Inhibition of TNF-α production by stimulated human peripheral blood leukocytes in vitro
Procedure: as §1, §2, §3, §4

IL-8 = assay: Inhibition of IL-8 production by stimulated human peripheral blood leukocytes in vitro
Procedure: as §1, §2, §3, §4

IL-1α = assay: Inhibition of IL-1 production by stimulated human peripheral blood leukocytes in vitro
[1] = zymosan stimulated, compound 10 μM
[2] = zymosan stimulated, compound 50 μM

Compound | Percentage of inhibition of IL-6 production (IL-6; LPS stimulated, compound 10 μM) | Percentage of inhibition of IL-6 production (IL-6; LPS stimulated, compound 50 μM) | Percentage of inhibition of IL-6 production (IL-6; [1]) | Percentage of inhibition of IL-6 production (IL-6; [2]) | Percentage of inhibition of TNF-α production (TNF-α; LPS stimulated, compound 10 μM) | Percentage of inhibition of TNF-α production (TNF-α; LPS stimulated, compound 50 μM) | Percentage of inhibition of TNF-α production (TNF-α; [1]) | Percentage of inhibition of TNF-α production (TNF-α; [2]) | Percentage of inhibition of IL-8 production (IL-8; LPS stimulated, compound 10 μM) | Percentage of inhibition of IL-8 production (IL-8; LPS stimulated, compound 50 μM) | Percentage of inhibition of IL-8 production (IL-8; [1]) | Percentage of inhibition of IL-8 production (IL-8; [2]) | Percentage of inhibition of IL-1α production (IL-1α; LPS stimulated, compound 10 μM) | Percentage of inhibition of IL-1α production (IL-1α; LPS stimulated, compound 50 μM) | Percentage of inhibition of IL-1α production (IL-1α; [1]) | Percentage of inhibition of IL-1α production (IL-1α; [2]) | Percentage of inhibition of IL-6 production (IL-6; PMA stimulated, compound 10 μM) | Percentage of inhibition of IL-6 production (IL-6; PMA stimulated, compound 50 μM) | Percentage of inhibition of TNF-α production (TNF-α; PMA stimulated, compound 10 μM) | Percentage of inhibition of TNF-α production (TNF-α; PMA stimulated, compound 50 μM) | also measured
CC[C@H]1OC(=O)[C@H](C)C2O[C@@](C)(C[C@@H](C)CN(C(=O)NCc3ccccc3)[C@H](C)[C@@H](O)[C@]1(C)O)[C@H](O[C@@H]1O[C@H](C)C[C@H](N(C)C)[C@H]1O)[C@H]2C [Compound 11] | 0% | 66% | 72% | 100% | 0% | 51% | 13% | 88% | 0% | 52% | 23% | 75% | 48% | 38% | 85% | 77% | – | – | – | – | –
CC[C@H]1OC(=O)[C@H](C)[C@@H](O[C@H]2C[C@@](C)(OC)[C@@H](O)[C@H](C)O2)[C@H](C)[C@@H](O[C@@H]2O[C@H](C)C[C@H](N(C)C)[C@H]2O)[C@](C)(O)C[C@@H](C)CN(C(=S)Nc2ccc(Br)cc2)[C@H](C)[C@@H](O)[C@]1(C)O [Compound 7] | 54% | 100% | 73% | 100% | 0% | 100% | 69% | 100% | 39% | 100% | 61% | 99% | 71% | 89% | 96% | 83% | 65% | 90% | 95% | 100% | Percentage of inhibition of IL-8 production (IL-8; PMA stimulated, compound 10 μM): 40%; Percentage of inhibition of IL-8 production (IL-8; PMA stimulated, compound 50 μM): 100%; Percentage of inhibition of IL-1α production (IL-1α; PMA stimulated, compound 10 μM): 0%; Percentage of inhibition of IL-1α production (IL-1α; PMA stimulated, compound 50 μM): 79%
CC[C@H]1OC(=O)[C@H](C)[C@@H](O[C@H]2C[C@@](C)(OC)[C@@H](O)[C@H](C)O2)[C@H](C)[C@@H](O[C@@H]2O[C@H](C)C[C@H](N(C)C)[C@H]2O)[C@](C)(O)C[C@@H](C)CN(C(=O)Nc2ccc(Cl)c(C(F)(F)F)c2)[C@H](C)[C@@H](O)[C@]1(C)O [Compound 10] | 63% | 100% | 76% | 100% | 32% | 99% | 69% | 99% | 55% | 93% | 82% | 97% | 0% | 100% | 0% | 96% | 40% | 100% | 0% | 100% | Percentage of inhibition of IL-8 production (IL-8; PMA stimulated, compound 10 μM): 75%; Percentage of inhibition of IL-8 production (IL-8; PMA stimulated, compound 50 μM): 100%; Percentage of inhibition of IL-1α production (IL-1α; PMA stimulated, compound 10 μM): 0%; Percentage of inhibition of IL-1α production (IL-1α; PMA stimulated, compound 50 μM): 100%
